Laboratory results taken from patent publication US5985897A, “Benzothiphene compounds, intermediates, compositions, and methods” (priority 1997, dated 1999).

How the values were obtained:
Eosinophil peroxidase = system: Eosinophil peroxidase; set-up: species or system rat (female Sprague Dawley, ovariectomized); conditions: rat, in vivo
Source text: (§1) Seventy-five day old female Sprague Dawley rats (weight range of 200 to 225 g) were obtained from Charles River Laboratories (Portage, Mich.). The animals were either bilaterally ovariectomized (OVX) or exposed to a sham surgical procedure at Charles River Laboratories, and then shipped after one week. Upon arrival, they were housed in metal hanging cages in groups of 3 or 4 per cage and had ad libitum access to food (calcium content approximately 0.5%) and water for one week. Room temperature was maintained at 22.2°±1.70° C. with a minimum relative humidity of 40%. The photoperiod in the room was 12 hours light and 12 hours dark.
Dosing Regimen Tissue Collection. […] The animals were then sacrificed by asphyxiation with CO2, the uterus was removed through a midline incision, and a wet uterine weight was determined.
Uterine Eosinophil Peroxidase (EPO) Assay. […] Upon addition of 0.01% hydrogen peroxide and 10 mM O-phenylenediamine (final concentrations) in Tris buffer, increase in absorbance was monitored for one minute at 450 nm. […] The maximal velocity of a 15 second interval was determined over the initial, linear portion of the reaction curve.
As is expressed in the data below, estrogenicity also was assessed by evaluating the adverse response of eosinophil infiltration into the uterus. […]

Serum cholesterol = Serum cholesterol analysis in ovariectomized rats (4-day oral dosing); assay type: in vivo, rat (female Sprague Dawley; conditions: for Serum Cholest. % Dec. (decrease versus ovariectomized controls): daily for 4 days, * p < .05
Experimental: (§2) In the examples illustrating the methods, a postmenopausal model was used in which effects of different treatments upon circulating lipids were determined.
as §1
Dosing Regimen Tissue Collection. After a one week acclimation period (therefore, two weeks post-OVX) daily dosing with test compound was initiated. 17α-ethynyl estradiol or the test compound were given orally, unless otherwise stated, as a suspension in 1% carboxymethylcellulose or dissolved in 20% cyclodextrin. Animals were dosed daily for 4 days. Following the dosing regimen, animals were weighed and anesthetized with a ketamine:xylazine (2:1, V:V) mixture and a blood sample was collected by cardiac puncture. The animals were then sacrificed by asphyxiation with CO2, the uterus was removed through a midline incision, and a wet uterine weight was determined.
Cholesterol Analysis. Blood samples were allowed to clot at room temperature for 2 hours, and serum was obtained following centrifugation for 10 minutes at 3000 rpm. Serum cholesterol was determined using a Boehringer Mannheim Diagnostics high performance cholesterol assay. Briefly the cholesterol was oxidized to cholest-4-en-3-one and hydrogen peroxide. The hydrogen peroxide was then reacted with phenol and 4-aminophenazone in the presence of peroxidase to produce a p-quinone imine dye, which was read spectrophotemetrically at 500 nm. Cholesterol concentration was then calculated against a standard curve.
Data presented in Table 1 below show comparative results among ovariectomized rats, rats treated with 17α-ethynyl estradiol (EE2; an orally available form of estrogen), and rats treated with certain compounds of the instant invention. […] This uterine response to estrogen is well recognized in the art.
The data presented in Table 1 below reflects the response of 5 to 6 rats per treatment.

uterus = system: uterus; set-up: species or system rat (female Sprague Dawley, ovariectomized); conditions: rat, in vivo, po, 0.1 mg/kg/day
Experimental: as §2, §1
Dosing Regimen Tissue Collection. After a one week acclimation period (therefore, two weeks post-OVX) daily dosing with test compound was initiated. 17α-ethynyl estradiol or the test compound were given orally, unless otherwise stated, as a suspension in 1% carboxymethylcellulose or dissolved in 20% cyclodextrin. Animals were dosed daily for 4 days. […] The animals were then sacrificed by asphyxiation with CO2, the uterus was removed through a midline incision, and a wet uterine weight was determined. […]

femur density = experiment: Osteoporosis Test Procedure (femur density, ovariectomized rats); assay type: in vivo, rat; conditions: orally administered
Experimental: Following the General Preparation Procedure, infra, the rats are treated daily for 35 days (6 rats per treatment group) and sacrificed by carbon dioxide asphyxiation on the 36th day. The 35 day time period is sufficient to allow maximal reduction in bone density, measured as described herein. At the time of sacrifice, the uteri are removed, dissected free of extraneous tissue, and the fluid contents are expelled before determination of wet weight in order to confirm estrogen deficiency associated with complete ovariectomy. […] The uteri are then placed in 10% neutral buffered formalin to allow for subsequent histological analysis. The right femurs are excised and digitilized x-rays generated and analyzed by an image analysis program (NIH image) at the distal metaphysis. The proximal aspect of the tibiae from these animals are also scanned by quantitative computed tomography. In accordance with the above procedures, compounds of the instant invention and ethynyl estradiol (EE2) in 20% hydroxypropyl β-cyclodextrin are orally administered to test animals. Distal femur metaphysis and proximal tibiae data are compared to intact and ovariectomized test animals. Results are reported as percent protection relative to ovariectomy. Ovariectomy of the test animals causes a significant reduction in femur density compared to intact, vehicle treated controls. […]

[1] = 0.1 mg/kg PO, negative = increase

| SMILES | Uterine Eosinophil (Vmax), eosinophil peroxidase (Eosinophil peroxidase) | eosinophil infiltration into the uterus (in words) (Eosinophil peroxidase) | Serum Cholest. % Dec. (decrease versus ovariectomized controls) (Serum cholesterol; [1]) [%] | serum cholesterol (in words) (Serum cholesterol; oral, versus ovariectomized control animals, EE2 at 0.1 mg/kg/day) | uterine weight (in words) (uterus) | loss of femur density after ovariectomy (in words) (femur density) | Serum Cholest. % Dec. (decrease versus ovariectomized controls) (Serum cholesterol; 1.0 mg/kg PO) [%] | Serum Cholest. % Dec. (decrease versus ovariectomized controls) (Serum cholesterol; 10.0 mg/kg PO) [%] |
| --- | --- | --- | --- | --- | --- | --- | --- | --- |
| C#C[C@]1(O)CC[C@H]2[C@@H]3CCc4cc(O)ccc4[C@H]3CC[C@@]21C [EE2, 17α-ethynyl estradiol, reference compound] | 212.4 | substantial, expected increase in eosinophil infiltration | 76.6 | caused a decrease in serum cholesterol | substantially greater than the uterine weight of ovariectomized test animals | prevents this loss |  |  |
| CC(C)c1sc2ccccc2c1Oc1ccc(OCCN2CCCCC2)cc1.Cl [Example 4, 3-[4-[2-(1-Piperidinyl)ethoxy]phenoxy]-2-(2-propyl]benzo[b]thiophene Hydrochloride] |  |  | -27.6 |  |  |  | 19.2 | 61.6 |
| CCCc1sc2ccccc2c1Oc1ccc(OCCN2CCCCC2)cc1.Cl [Example 7, 3-[4-[2-(1-Piperidinyl)ethoxy]phenoxy]-2-propylbenzo[b]thiophene Hydrochloride] |  |  | -11.1 |  |  |  | 41.2 | 46.6 |
| Cl.c1ccc2c(Oc3ccc(OCCN4CCCCC4)cc3)c(C3CCCCC3)sc2c1 [Example 11, 3-[4-[2-(1-Piperidinyl)ethoxy]phenoxy]-2-cyclohexylbenzo[b]thiophene Hydrochloride] |  |  | 55.8 |  |  |  | 58.9 | 50.2 |
